IC50 data for nine molecules are collected here from patent US12371454B2, “Cyclic peptide compound having Kras inhibitory action” (priority 2019, dated 2025).

Starred links: 1 amine or outer side, 2 acyl side, 3 side chain; linkers in the order of their positions; H or OH if unused. Positions of bridges follow the written chain, without caps; N, C: chain ends. Non-standard residues stand in square brackets, D forms with d. Residues, ends and D or L forms follow the SMILES beside them. *: point of attachment. hPhe(3,5-F2-4-CF3) = N[C@@H](CCc1cc(F)c(C(F)(F)F)c(F)c1)C(=O)O; hPhe(3-Cl-4-CF3) = N[C@@H](CCc1ccc(C(F)(F)F)c(Cl)c1)C(=O)O; NMePhe(4-Me) = CN[C@@H](Cc1ccc(C)cc1)C(=O)O; NMePhe(3-F) = CN[C@@H](Cc1cccc(F)c1)C(=O)O; NMedβ3hAla = C[C@H](CC(=O)[*:2])N(C)[*:1]; NMeGly(cPent) = CN[C@H](C(=O)O)C1CCCC1; Phe(3-I) = N[C@@H](Cc1cccc(I)c1)C(=O)O; Pro(4,4-F2) = O=C(O)[C@@H]1CC(F)(F)CN1; NMeCha = CN[C@@H](CC1CCCCC1)C(=O)O; NMeGly(cPr) = CN[C@H](C(=O)O)C1CC1; Azetidine(3,3-F2) = FC1(F)CN(*)C1; Nva(3-Et) = CCC(CC)[C@H](N)C(=O)O; NMeChg = CN[C@H](C(=O)O)C1CCCCC1; NMeI = CC[C@H](C)[C@H](NC)C(=O)O; NMeD = CN[C@@H](CC(=O)O)C(=O)O; NMeL = CN[C@@H](CC(C)C)C(=O)O; NEtAla = CCN[C@@H](C)C(=O)O; NMeNva = CCC[C@H](NC)C(=O)O; NMeV = CN[C@H](C(=O)O)C(C)C; d(β3hA) = C[C@@H](N)CC(=O)O; NMeA = CN[C@@H](C)C(=O)O; NMeAib = CNC(C)(C)C(=O)O; Piperidide = C1CCN(*)CC1; Ac5c = NC1(C(=O)O)CCCC1; Aze = O=C(O)[C@@H]1CCN1; Sar = CNCC(=O)O

For this assay, the target named is T1, Kras and SOS1 (biotin-tagged human Kras loaded with GDP, His-tagged human SOS1) (Homo sapiens, UniProt P01116, G12D).
T1 construct: made in house; host or cells: E. coli (stated for Kras only)
T1 sequence (P01116 1-188 isoform P01116-2 G12D): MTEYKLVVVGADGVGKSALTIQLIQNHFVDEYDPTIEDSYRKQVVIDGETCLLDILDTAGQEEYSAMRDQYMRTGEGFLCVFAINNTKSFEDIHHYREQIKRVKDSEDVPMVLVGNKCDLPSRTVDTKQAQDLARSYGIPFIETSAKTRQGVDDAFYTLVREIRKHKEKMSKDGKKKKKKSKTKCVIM
Briefly: Protein-protein interaction inhibition between Kras and SOS1 (KrasGl2D-SOS PPI) using AlphaScreen. It is filed as binding. The settings on record: AlphaScreen; biotin-tagged human Kras loaded with GDP, His-tagged human SOS1; read-out: KRAS G12D-SOS PPI IC50. Put shortly: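 Binding between SOS1 and Kras is detected as bead-proximity luminescence: illuminate Ni-conjugated donors (680 nm), collect 520-620 nm emission from streptavidin-conjugated acceptors; Kras carries biotin and GDP loaded after purification, SOS1 carries a His tag.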
Background: Alpha assays give light when donor and acceptor beads are brought close together.
For `CCC[C@H]1C(=O)N(C)CC(=O)N[C@@H](CCc2ccc(C(F)(F)F)c(Cl)c2)C(=O)N2CCC[C@H]2C(=O)NC2(CCCC2)C(=O)N(C)[C@@H](C2CCCCC2)C(=O)N(C)[C@H](C(=O)N2CCCCC2)CC(=O)N(C)[C@@H](CC(C)C)C(=O)N[C@@H]([C@@H](C)CC)C(=O)N(C)CC(=O)N(C)CC(=O)N1C` [Compound 187] ([NMeL]I[Sar][Sar][NMeNva][Sar][hPhe(3-Cl-4-CF3)]P[Ac5c][NMeChg][NMeD]-Piperidide; lactam N-11), the IC50 (commonly the concentration that gives 50% inhibition) came to 3.2 nM.

Consider `CC[C@H](C)[C@@H]1NC(=O)[C@H](CC(C)C)N(C)C(=O)C[C@@H](C(=O)N2CCCCC2)N(C)C(=O)[C@H](CC(C)C)NC(=O)C(C)(C)N(C)C(=O)[C@H](Cc2ccc(OC)cc2)NC(=O)[C@H](Cc2cccc(I)c2)NC(=O)CN(C)C(=O)[C@H](Cc2ccc(C)cc2)N(C)C(=O)[C@@H]2CCN2C(=O)CN(C)C1=O` [Compound 188] ([NMeL]I[Sar][Aze][NMePhe(4-Me)][Sar][Phe(3-I)]Y(Me)[NMeAib]L[NMeD]-Piperidide; lactam N-11), for which the IC50 is 6.1 nM.

On to `CC[C@H](C)[C@@H]1NC(=O)[C@H](C)N(C)C(=O)C[C@@H](C(=O)N2CCCCC2)N(C)C(=O)[C@H](C(C)C)N(C)C(=O)[C@H](CC(C)C)NC(=O)[C@H](CC(=O)N2CC(F)(F)C2)N(C)C(=O)[C@H](CCc2ccc(C(F)(F)F)c(Cl)c2)NC(=O)CN(C)C(=O)[C@H](CC2CCCCC2)N(C)C(=O)CN(C)C(=O)CN(C)C1=O` [Compound 190] ([NMeA]I[Sar][Sar][NMeCha][Sar][hPhe(3-Cl-4-CF3)][NMeD](Azetidine(3,3-F2))L[NMeV][NMeD]-Piperidide; lactam N-11), for which the IC50 stood at 150 nM.

As to `CC[C@H](C)[C@@H]1NC(=O)[C@H](CC(C)C)N(C)C(=O)C[C@@H](C(=O)N(C)C)N(C)C(=O)[C@H](C2CCCC2)N(C)C(=O)C2(CCCC2)NC(=O)[C@@H](C)NC(=O)[C@H](CCc2ccc(C(F)(F)F)c(Cl)c2)NC(=O)CN(C)C(=O)[C@H](CC2CCCCC2)N(C)C(=O)[C@@H]2CCN2C(=O)[C@H](C)N(C)C1=O` [Compound 191] ([NMeL]I[NMeA][Aze][NMeCha][Sar][hPhe(3-Cl-4-CF3)][dA][Ac5c][NMeGly(cPent)][NMeD]-NMe2; lactam N-11), the half-maximal inhibitory concentration (IC50) amounted to 3.4 nM.

`CCC(CC)[C@@H]1NC(=O)[C@H](CC(C)C)N(C)C(=O)C[C@@H](C(=O)N(C)C)N(C)C(=O)[C@H]([C@@H](C)CC)N(C)C(=O)CNC(=O)[C@@H]2CCCN2C(=O)[C@H](CCc2ccc(C(F)(F)F)c(Cl)c2)NC(=O)CN(C)C(=O)[C@H](Cc2ccc(C)cc2)N(C)C(=O)[C@@H]2CCN2C(=O)[C@H](C)N(C)C1=O` [Compound 193] ([NMeL][Nva(3-Et)][NMeA][Aze][NMePhe(4-Me)][Sar][hPhe(3-Cl-4-CF3)]PG[NMeI][NMeD]-NMe2; lactam N-11): the concentration for half-maximal inhibition (IC50) is 420 nM.

For the molecule `CC[C@H](C)[C@@H]1NC(=O)[C@H](C)N(C)C(=O)C[C@@H](C)NC(=O)[C@H](C2CCCC2)N(C)C(=O)C2(CCCC2)NC(=O)[C@@H]2CCCN2C(=O)[C@H](CCc2ccc(C(F)(F)F)c(Cl)c2)NC(=O)CN(C)C(=O)[C@H](Cc2cccc(F)c2)N(C)C(=O)[C@@H]2CCCN2C(=O)CN(C)C1=O` [Compound 194] (cyclo([Ac5c][NMeGly(cPent)][d(β3hA)][NMeA]I[Sar]P[NMePhe(3-F)][Sar][hPhe(3-Cl-4-CF3)]P)), the IC50 came out at 27 nM.

As to `CC[C@H](C)[C@@H]1NC(=O)[C@H](C)N(CC)C(=O)C[C@@H](C)NC(=O)[C@H](C(C)C)N(C)C(=O)C2(CCCC2)NC(=O)[C@@H]2CCCN2C(=O)[C@H](CCc2ccc(C(F)(F)F)c(Cl)c2)NC(=O)CN(C)C(=O)[C@H](CC2CCCCC2)N(C)C(=O)CN(C)C(=O)CN(C)C1=O` [Compound 196] (cyclo([Ac5c][NMeV][d(β3hA)][NEtAla]I[Sar][Sar][NMeCha][Sar][hPhe(3-Cl-4-CF3)]P)), the concentration for half-maximal inhibition (IC50) came to 13 nM.

In the case of `CC[C@H](C)[C@@H]1NC(=O)[C@H](CC(C)C)N(C)C(=O)C[C@@H](C(=O)N2CCCCC2)N(C)C(=O)[C@H](C2CC2)N(C)C(=O)C2(CCCC2)NC(=O)[C@@H]2CCCN2C(=O)[C@H](CCc2ccc(C(F)(F)F)c(Cl)c2)NC(=O)CN(C)C(=O)[C@H](CC2CCCCC2)N(C)C(=O)CN(C)C(=O)CN(C)C1=O` [Compound 197] ([NMeL]I[Sar][Sar][NMeCha][Sar][hPhe(3-Cl-4-CF3)]P[Ac5c][NMeGly(cPr)][NMeD]-Piperidide; lactam N-11), the concentration for half-maximal inhibition (IC50) came out at 6.8 nM.

Consider `CC[C@H](C)[C@@H]1NC(=O)[C@H](CC(C)C)N(C)C(=O)C[C@@H](C)N(C)C(=O)[C@H](C2CCCC2)N(C)C(=O)C2(CCCC2)NC(=O)[C@@H]2CC(F)(F)CN2C(=O)[C@H](CCc2cc(F)c(C(F)(F)F)c(F)c2)NC(=O)CN(C)C(=O)[C@H](CC2CCCCC2)N(C)C(=O)CN(C)C(=O)CN(C)C1=O` [Compound 198] (cyclo([Ac5c][NMeGly(cPent)][NMedβ3hAla][NMeL]I[Sar][Sar][NMeCha][Sar][hPhe(3,5-F2-4-CF3)][Pro(4,4-F2)])), for which the 50% inhibitory concentration (IC50) worked out at 8.5 nM.
